From paper PMC7395062, “Multiparametric assessment of mitochondrial respiratory inhibition in HepG2 and RPTEC/TERT1 cells using a panel of mitochondrial targeting agrochemicals” (Archives of Toxicology, 2020)
Like-named read-outs stand apart in the source and are kept apart here.

How the values were obtained:
Format in all cases: cell-based, human
RPTEC/TERT1 cells = experiment: Resazurin reduction viability assay, RPTEC/TERT1; conditions: RPTEC/TERT1
Procedure: These cells were obtained under licence from Evercyte GmBH, Vienna Austria. […] For experiments, cells were plated in a required format plate, allowed to become contact-inhibited and fed 24 h prior to treatment exposure. For experiments in galactose condition, cells were fed 24 h prior to experiment with culture medium (custom made DMEM/F12, PromoCell) in which 5 mM glucose was replaced with 5 mM galactose (Merck, G5388).
(§1) The conversion of resazurin to fluorescent resorufin was measured in a plate reader at excitation/emission 540/590 nm.
(§2) All results are average of 2–3 independent experiments.

HepG2 cells = experiment: Resazurin reduction viability assay, 2D HepG2
Procedure: (§3) The HepG2 cell line, a human hepatocellular carcinoma, was obtained from ATCC (American Type Culture Collection, Wesel, Germany). […] Cells were maintained at 37 °C in a 5% CO2 humidified atmosphere, fed every 2 to 3 days and passaged at approximately 80% confluence. […] For galactose experiments, the medium was refreshed 24 h before exposure with galactose-containing medium. […] Culture medium was refreshed every 3–4 days and the culture was maintained for 21 days prior to dosing.
as §1, §2

HepG2 3D spheroids = experiment: Cell death assay (PI staining) in 3D cultured HepG2 spheroids; conditions: for Effect of repeated exposure (5 × 24 h vs 1 × 24 h) on toxic sensitivity: 3D HepG2 spheroids; for EC50: Homo sapiens, HepG2, 24 h
Procedure: as §3
At day 21, the culture medium was replaced by fresh medium containing the compounds in the desired concentration. […] For the repeat exposure scenario, Hoechst was added to the 4th exposure and PI to the 5th exposure. […] The confocal imaging was performed using a Nikon TiE2000 with perfect focus system and XY-stage (Nikon, Amsterdam, The Netherlands). Quantification of the Hoechst and PI signal localization was performed using Nis Elements Analysis software. First, a max projection was created of all z-stacks. The overlapping areas between Hoechst and PI in the projection picture were assessed based on a manually curated intensity threshold. Finally, the fraction of spheroids positive for PI staining was determined.
as §2

[1] = tested on: CII/CIII (succinate dehydrogenase / cytochrome bc1 complex); conditions: permeabilised HepG2; sequential substrates/inhibitors
Procedure: The test compound is injected and OCR is measured. […] OCR is measured for the second time. […] A third and final OCR measurement is conducted.
Compounds were injected sequentially and OCR was measured twice. […] ETC inhibition is determined in decreased OCR.
as §2

SMILES: CCc1nn(C)c(C(=O)NCc2ccc(C(C)(C)C)cc2)c1Cl [Tebufenpyrad]
- Statistical significance, Viability Glucose settings Resazurin (RPTEC/TERT1 cells; g = 7 µM): * (*p < 0.05 (Tables 3, 4))
- Statistical significance, Viability Glucose settings Resazurin (RPTEC/TERT1 cells; h = 10 µM): * (*p < 0.05 (Tables 3, 4))
- Statistical significance, Viability Galactose settings Resazurin (HepG2 cells; HepG2, galactose, e = 0.08 µM): * (*p < 0.05 (Tables 3, 4))
- Statistical significance, Viability Galactose settings Resazurin (HepG2 cells; HepG2, galactose, f = 0.4 µM): * (*p < 0.05 (Tables 3, 4))
- Statistical significance, Viability Galactose settings Resazurin (HepG2 cells; HepG2, galactose, g = 7 µM): * (*p < 0.05 (Tables 3, 4))
- Statistical significance, Viability Galactose settings Resazurin (HepG2 cells; HepG2, galactose, h = 10 µM): * (*p < 0.05 (Tables 3, 4))
- Statistical significance, Viability Glucose settings Resazurin (HepG2 cells; HepG2, glucose, h = 10 µM): * (*p < 0.05 (Tables 3, 4))
- Effect of repeated exposure (5 × 24 h vs 1 × 24 h) on toxic sensitivity (HepG2 3D spheroids): increased the toxic sensitivity

SMILES: CC(C)(C)c1ccc(CCOc2ncnc3ccccc23)cc1 [Fenazaquin]
- Statistical significance, Viability Glucose settings Resazurin (RPTEC/TERT1 cells; g = 7 µM): * (*p < 0.05 (Tables 3, 4))
- Statistical significance, Viability Glucose settings Resazurin (RPTEC/TERT1 cells; h = 10 µM): * (*p < 0.05 (Tables 3, 4))
- Statistical significance, Viability Galactose settings Resazurin (HepG2 cells; HepG2, galactose, e = 0.08 µM): * (*p < 0.05 (Tables 3, 4))
- Statistical significance, Viability Galactose settings Resazurin (HepG2 cells; HepG2, galactose, f = 0.4 µM): * (*p < 0.05 (Tables 3, 4))
- Statistical significance, Viability Galactose settings Resazurin (HepG2 cells; HepG2, galactose, g = 7 µM): * (*p < 0.05 (Tables 3, 4))
- Statistical significance, Viability Galactose settings Resazurin (HepG2 cells; HepG2, galactose, h = 10 µM): * (*p < 0.05 (Tables 3, 4))

SMILES: CON=C(C(=O)OC)c1ccccc1CON=C(C)c1cccc(C(F)(F)F)c1 [Trifloxystrobin]
- Statistical significance, Viability Glucose settings Resazurin (RPTEC/TERT1 cells; h = 10 µM): * (*p < 0.05 (Tables 3, 4))
- Statistical significance, Viability Galactose settings Resazurin (HepG2 cells; HepG2, galactose, f = 0.4 µM): * (*p < 0.05 (Tables 3, 4))
- Statistical significance, Viability Galactose settings Resazurin (HepG2 cells; HepG2, galactose, g = 7 µM): * (*p < 0.05 (Tables 3, 4))
- Statistical significance, Viability Galactose settings Resazurin (HepG2 cells; HepG2, galactose, h = 10 µM): * (*p < 0.05 (Tables 3, 4))
- ETC-complex specificity pattern (CII/CIII) [1]: conformed to this pattern

SMILES: CO/N=C(/C(=O)OC)c1ccccc1COc1ccccc1C [Kresoxim-methyl]
- Statistical significance, Viability Galactose settings Resazurin (HepG2 cells): * (key: *p < 0.05 (Tables 3, 4))

SMILES: CCOCCc1ccc(OCCN=c2[nH]cnc(CC)c2Cl)c(C)c1C [Pyrimidifen]
- Statistical significance, Viability Glucose settings Resazurin (RPTEC/TERT1 cells; g = 7 µM): * (*p < 0.05 (Tables 3, 4))
- Statistical significance, Viability Glucose settings Resazurin (RPTEC/TERT1 cells; h = 10 µM): * (*p < 0.05 (Tables 3, 4))
- Statistical significance, Viability Galactose settings Resazurin (HepG2 cells; HepG2, galactose, d = 0.016 µM): * (*p < 0.05 (Tables 3, 4))
- Statistical significance, Viability Galactose settings Resazurin (HepG2 cells; HepG2, galactose, e = 0.08 µM): * (*p < 0.05 (Tables 3, 4))
- Statistical significance, Viability Galactose settings Resazurin (HepG2 cells; HepG2, galactose, f = 0.4 µM): * (*p < 0.05 (Tables 3, 4))
- Statistical significance, Viability Galactose settings Resazurin (HepG2 cells; HepG2, galactose, g = 7 µM): * (*p < 0.05 (Tables 3, 4))
- Statistical significance, Viability Galactose settings Resazurin (HepG2 cells; HepG2, galactose, h = 10 µM): * (*p < 0.05 (Tables 3, 4))

SMILES: CSC1=N[C@@](C)(c2ccccc2)C(=O)N1Nc1ccccc1 [Fenamidone]
- Statistical significance, Viability Galactose settings Resazurin (HepG2 cells; HepG2, galactose, h = 10 µM): * (*p < 0.05 (Tables 3, 4))
- ETC-complex specificity pattern (CII/CIII) [1]: only partially rescued with ascorbate/TMPD

SMILES: CCCCCC[C@H]1C(=O)O[C@H](C)[C@H](NC(=O)c2cccc(NC=O)c2O)C(=O)O[C@@H](C)[C@@H]1OC(=O)CC(C)C [Antimycin A]
- Statistical significance, Viability Galactose settings Resazurin (RPTEC/TERT1 cells; e = 0.08 µM): * (*p < 0.05 (Tables 3, 4))
- Statistical significance, Viability Galactose settings Resazurin (RPTEC/TERT1 cells; f = 0.4 µM): * (*p < 0.05 (Tables 3, 4))
- Statistical significance, Viability Galactose settings Resazurin (RPTEC/TERT1 cells; g = 7 µM): * (*p < 0.05 (Tables 3, 4))
- Statistical significance, Viability Galactose settings Resazurin (RPTEC/TERT1 cells; h = 10 µM): * (*p < 0.05 (Tables 3, 4))
- Statistical significance, Viability Glucose settings Resazurin (RPTEC/TERT1 cells; g = 7 µM): * (*p < 0.05 (Tables 3, 4))
- Statistical significance, Viability Glucose settings Resazurin (RPTEC/TERT1 cells; h = 10 µM): * (*p < 0.05 (Tables 3, 4))
- Statistical significance, Viability Galactose settings Resazurin (HepG2 cells; HepG2, galactose, d = 0.016 µM): * (*p < 0.05 (Tables 3, 4))
- Statistical significance, Viability Galactose settings Resazurin (HepG2 cells; HepG2, galactose, e = 0.08 µM): * (*p < 0.05 (Tables 3, 4))
- Statistical significance, Viability Galactose settings Resazurin (HepG2 cells; HepG2, galactose, f = 0.4 µM): * (*p < 0.05 (Tables 3, 4))
- Statistical significance, Viability Galactose settings Resazurin (HepG2 cells; HepG2, galactose, g = 7 µM): * (*p < 0.05 (Tables 3, 4))
- Statistical significance, Viability Galactose settings Resazurin (HepG2 cells; HepG2, galactose, h = 10 µM): * (*p < 0.05 (Tables 3, 4))
- Effect of repeated exposure (5 × 24 h vs 1 × 24 h) on toxic sensitivity (HepG2 3D spheroids): increased the toxic sensitivity
- EC50 (HepG2 3D spheroids; read-out: EC50 cell death 3D HepG2, 1 × 24 h exposure): > 10000 nM
- EC50 (HepG2 3D spheroids; read-out: EC50 cell death 3D HepG2, 5 × 24 h exposure): 74 nM
- ETC-complex specificity pattern (CII/CIII) [1]: conformed to this pattern
